# Data reported in patent US9606114B2, “Multivalent chelators containing a scaffold structure for modifying and organizing of target molecules” (JOHANN WOLFGANG GOETHE-UNIVERSITAT FRANKFURT AM MAIN, priority 2004, dated 2017).
# Key:
# [1] = target: T1, ifnar2-H10 (Homo sapiens, UniProt P48551); assay: Fluorescence quantum yield of MCH-fluorophore conjugate after Ni(II) loading and protein binding; assay type: physicochemical
# T1 construct: the extracellular domain of ifnar2 with a C-terminal deca-histidine-tag (ifnar2-H10)
# T1 sequence (P48551 with tags, fused parts or gaps): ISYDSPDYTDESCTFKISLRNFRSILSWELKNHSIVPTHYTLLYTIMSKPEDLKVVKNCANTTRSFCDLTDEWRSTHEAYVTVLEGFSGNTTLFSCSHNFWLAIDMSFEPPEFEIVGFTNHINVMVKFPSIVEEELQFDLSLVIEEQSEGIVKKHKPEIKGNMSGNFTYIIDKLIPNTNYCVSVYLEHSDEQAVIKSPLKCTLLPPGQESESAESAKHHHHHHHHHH
# Description: (§1) For a non-covalent fluorescence labeling of histidine-tagged proteins in solution conjugates of tris-NTA with three different fluorophores were synthesized: Oregon Green 488, ATTO 565, FEW-S0387 (FIG. 17).
# (§2) After loading with Ni(II)-ions ifnar2-H10 was added to these conjugates and the excess conjugate was separated through gel filtration.
# (§3) The different states of the MCH-fluorophore-conjugate could be followed by fluorescence quantum yield. (FIG. 18B). After loading of the chelator-groups with Ni(II)-ions a marked reduction of the fluorescence to about 50% was observed, and after binding to the protein to about 40%.
# [2] = test system: ifnar2-H10; assay: as above; assay type: physicochemical; conditions: relative to unloaded conjugate
# Description: as §1, §2, §3
# [3] = target: T1, ifnar2-H10; assay: Immobilization of histidine-tagged protein on chelator-modified surface, detected by RIfS; assay type: binding; conditions: immobilized on tris-NTA modified surface
# Description: The interaction of histidine-tagged proteins with the surfaces as produced in example 1 was characterized in detail by means of reflectometric interference spectroscopy (RIfS). Using this method, the binding of proteins to surfaces can be quantified in real time, as described in Piehler and Schreiber 2001 (Piehler J, Schreiber G. 2001. Fast transient cytokine-receptor interactions monitored in real time by reflectometric interference spectroscopy. Anal. Biochem. 289(2):173-186.)
# The immobilization of the extracellular domain of ifnar2 with a C-terminal deca-histidine-tag (ifnar2-H10) to a tris-NTA modified surface (FIG. 7A) is shown in FIG. 7B. Whereas no binding was detectable before loading of the chelator coupled to the surface with Ni(II)-ions, thereafter an overall binding of about 1.5 ng/mm^2 protein was observed that also maintained stably immobilized during rinsing. Nevertheless, this protein could be removed quantitatively with 200 mM imidazole as competitor.
# The functionality of the immobilized protein was examined through the binding of the ligand interferon α2 (IFNα2) (FIG. 8).
# [4] = target: T1, ifnar2-H10; assay: Lateral diffusion of protein anchored via bis-NTA lipid to solid-supported lipid double layer (FRAP); conditions: membrane-anchored via bis-NTA lipid in stearoyl-oleoyl-phosphatidylcholine double layer
# Description: For an attachment of proteins to lipid membranes, a lipid-analogue conjugate of bis-NTA was synthesized that is shown in FIG. 15A.
# This lipid was incorporated into unilaminar vesicles of stearoyl-oleoyl-phosphatidylcholine that spontaneously form a fluid solid-supported lipid-double layer on glass surfaces (FIG. 15B). ifnar2-H10 could be specifically anchored at these membranes, whereby the binding activity was completely preserved (FIG. 15B). The lateral diffusion of the membrane-anchored ifnar2-H10 was analyzed through fluorescence-bleaching (fluorescence recovery after photobleaching, FRAP) (FIG. 16). Thereby, a diffusion constant of 1 μm^2/s was determined.
substance,measurement,setting,value
ATTO 565-Tris-NTA,reduction of fluorescence compared with Oregon Green conjugate,[1]; Ni(II) loading and protein binding,even more pronounced
OG 488-Tris-NTA [tris-NTA-Oregon Green],fluorescence after binding to the protein,[1]; Ni(II)-loaded conjugate bound to ifnar2-H10,about 40%
same,fluorescence after loading of the chelator-groups with Ni(II)-ions,[2],about 50%
ifnar2-H10: extracellular domain of ifnar2 (type I interferon-receptor 2) with a C-terminal deca-histidine-tag,immobilized ifnar2-H10 active (binding of ligand IFNα2),[3],more than 90%
same,diffusion constant,[4],1 μm^2/s
